Experimental data published in patent US20210037856A1, “Ruminant Feed Composition Comprising A Muramidase” (Novozymes A/S, priority 2018, published 2021).
Where a name gives a salt, the structure may show the parent alone.

Key:
rumen fluid [1] = assay: in vitro ruminal fermentation, 13 muramidases, 12 h (Example 3); parameters: species or system cow; details: PC at dosage 0.01 mg/40 mL
Protocol: (§1) The trial was performed by Alimetrics (Alimetrics Ltd, Koskelontie 19B, FIN-02920 Espoo, Finland) using 120 mL serum bottles as fermentation vessels. The fermentation preparation and procedure is presented in Kettunen et al., (Kettunen H., J. Vuorenmaa, D. Gaffney and J. Apajalahti (2016): Yeast hydrolysate product enhances ruminal fermentation in vitro. J. App. Anim. Nutr., Vol. 4; e1; page 1 of 7). In short, the method is as follows: All bottles were initially filled with 1 g of feed DM composed from corn silage, barley meal, soybean meal, at the amounts of 0.5, 0.4, and 0.1 g DM, respectively. Subsequently, the bottles were flushed with CO2 passed through a hot copper catalyst for O2 scavenging and sealed with thick butyl rubber stopper. Anaerobic, reduced and temperature adjusted (+38° C.) artificial saliva buffer solution (Modified from Agriculture Handbook No. 379, (USDA, Washington, D.C., 1975), volume of 37.65 ml), freshly strained rumen fluid (5% inoculum; volume of 2 ml), and test compounds (volume of 0.35 ml) was introduced into the fermentation vessels under the oxygen-free CO2 flow. Following rumen fluid collection from a ruminal cannulated cow. Rumen fluid was pumped directly from the rumen into a preheated thermos and immediately closed, and transported to Alimetrics laboratory. The rumen fluid was used for inoculation within 2 hours of harvest. To ensure that both liquid and particle associated ruminal microbes were present in the inoculum both fractions were obtained. Liquid and solid fractions were strained through a metal mesh (grid size 3×3 mm) under anaerobic conditions prior to buffer dilution.
(§2) Following inoculation with rumen fluid, buffer and test solution the vessels were sealed with the butyl rubber septum's. All fermentation vessels were inoculated in random order to prevent the possible block effects. Inoculation time for each fermentation vessel was registered and was taken into account op on each sampling to ensure that duration of the fermentation was the same for each sample. The fermentation was continued for 12 h in a gyratory shaker at +38° C. Fermentation gas produced was measured and relived by collection of the fermentation gas in syringes at time 3, 6, 9, and 12 h. Feed residues were measured after 12 h fermentation.
(§3) The trial design was a dosage response, complete randomized design with 28 treatments using 150 fermentation vessels according to table 3. The 13 muramidase solutions were diluted to the concentration needed in enzyme buffer (BSA, Tween 20, acetate-buffer, Calcium, NaOH, adjusted to pH 6). Negative control was supplemented with the same buffer solution that was used for diluting the enzymes to reach the same liquid volume as the supplemented fermentation vessels. The ionophore Monensin (Monensin sodium salt, 90-95% TLC (Sigma Aldrich; Product code: M5273-1G)) was chosen as a positive control because it is a ruminants feed additive that affects volatile fatty acids (VFA) production.
(§4) Liquid samples obtained at 12 h were analyzed for the concentration of VFA (acetate, propionate, butyrate, and valerate) by GC-FID using a glass column packed with 80/120 carbopack B-DA/4% Carbowax stationary and helium as a carrier gas (Kettunen H., J. Vuorenmaa, T. Rinttilä, H. Grönberg, E. Valkonen and J. Apajalahti (2015): Natural resin acid-enriched composition as a modulator of intestinal microbiota and performance enhancer in broiler chicken. J. App. Anim. Nutr., Vol. 3; e2; page 1 of 9).
(§5) Digestibility of dry matter was quantified by determination of dry matter in the original feed matrix and in all fermentation vessels after 12 h of fermentation. Feed residues from the fermentation vessels were obtained by filtration tared sintered glass filters, washed with water and dried at 105° C. for 12 hours. Finally, the glass filters are weighed for the residual feed dry matter.
(§6) Dry matter digestibility (DMd) was calculated at the ratio between feed residues after end fermentation and the dry matter fed. […]

rumen fluid [2] = assay: in vitro ruminal fermentation, 22 muramidases, 12 h (Example 4); parameters: species or system cow; DMd: unit not given here; details: PC (Monensin) 0.01 or 0.10 mg/40 ml, not stated which
Protocol: as §1, with “was collected” for “collection”
as §2, with “solution,” for “solution”
as §3, with “27” for “28”, “145” for “150”, “5. […]” for “3. The 13 muramidase solutions were diluted to the concentration needed in enzyme buffer (BSA, Tween 20, acetate-buffer, Calcium, NaOH, adjusted to pH 6).”
as §4, with “Samples Obtained” for “samples obtained”, “Analyzed” for “analyzed”, “Concentration” for “concentration”, “(Acetate, Propionate,” for “(acetate, propionate,”
as §5, §6

Staphylococcus aureus = details: does not cleave N,6-O-diacetylmuramic acid in cell walls; Masschalck et al. 2002; cited from earlier work
[3] = dry matter digestibility after 12 h
[4] = summed carbon in VFA after 12 h

CC[C@@]1([C@@H]2O[C@@H]([C@H]3O[C@@](O)(CO)[C@H](C)C[C@@H]3C)C[C@@H]2C)CC[C@H]([C@]2(C)CC[C@]3(C[C@H](O)[C@@H](C)[C@@H]([C@@H](C)[C@@H](OC)[C@H](C)C(=O)O)O3)O2)O1 [PC, Monensin sodium salt, reference compound]
Acetate (rumen fluid [1]; VFA production after 12 h): 47.5 mmol/L | Butyrate (rumen fluid [1]; VFA production after 12 h): 3.86 mmol/L | Propionate (rumen fluid [1]; VFA production after 12 h): 46.4 mmol/L | DMd (rumen fluid [1]; [3]): 0.55 | Total VFA (rumen fluid [1]; sum of VFA after 12 h): 98 mmol/L | Carbon in VFA (rumen fluid [1]; [4]): 251 mmol/L | Acetate (rumen fluid [2]; VFA production after 12 h): 44.2 mmol/L | Butyrate (rumen fluid [2]; VFA production after 12 h): 3.7 mmol/L | Propionate (rumen fluid [2]; VFA production after 12 h): 42.8 mmol/L | DMd (rumen fluid [2]; [3]): 0.51 | Total VFA (rumen fluid [2]; sum of VFA after 12 h): 91 mmol/L | Carbon in VFA (rumen fluid [2]; [4]): 234 mmol/L

Muramidase extracted from hen egg white: GH22 muramidase from hen egg white, primary product available on the commercial market
lysis of Staphylococcus aureus (Staphylococcus aureus): unable to lyse
